We go through 24 compounds from patent US8394792B2, “Heterocyclic derivatives” (C&C Research Laboratories, priority 2008, dated 2013).

For one data set, the target named is CYP2C9 (Homo sapiens, UniProt P11712). The data set is described as follows: biochemical.
In the next data set the target is T1, hURAT1 (Homo sapiens, UniProt Q96S37).
T1 construct: expressed in transfected cells; host or cells: HEK293 (human kidney cell line), transient transfection with Fugene6
T1 sequence (Q96S37 1-553): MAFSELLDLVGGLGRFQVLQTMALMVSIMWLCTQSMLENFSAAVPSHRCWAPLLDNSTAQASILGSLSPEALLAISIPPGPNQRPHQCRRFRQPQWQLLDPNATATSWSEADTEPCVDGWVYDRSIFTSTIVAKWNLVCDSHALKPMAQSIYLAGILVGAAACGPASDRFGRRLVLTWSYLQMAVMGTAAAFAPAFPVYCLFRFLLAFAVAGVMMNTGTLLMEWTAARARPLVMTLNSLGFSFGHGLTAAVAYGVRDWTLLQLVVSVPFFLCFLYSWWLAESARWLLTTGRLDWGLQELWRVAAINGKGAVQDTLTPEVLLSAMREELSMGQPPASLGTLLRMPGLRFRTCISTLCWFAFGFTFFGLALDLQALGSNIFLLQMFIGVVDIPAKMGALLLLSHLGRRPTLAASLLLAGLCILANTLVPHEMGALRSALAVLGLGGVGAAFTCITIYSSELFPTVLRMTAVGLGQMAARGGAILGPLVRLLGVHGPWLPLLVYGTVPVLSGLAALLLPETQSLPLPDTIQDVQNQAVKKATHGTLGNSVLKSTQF
The data set is described as follows: Test for inhibiting urate reuptake activity via hURAT1 (uric acid transport assay in hURAT1-overexpressed HEK293 cell line). It counts as cell-based. Conditions: hURAT1-overexpressed HEK293 cells, [14C]-uric acid uptake, 100 μM uric acid; read-out: IC50 (μM) hURAT, level of uric acid reuptake inhibition. On the procedure: Test for Inhibiting Urate Reuptake Activity Via hURAT1
[hURAT1 Overexpression by Transient Transfection in Human Kidney Cell Line]
A human kidney cell line, HEK293 was incubated by using OptiMEM medium in 100 mm dish at (3*10^6 cells) for 24 hours. In order for the expression of hURAT1, a transfection mixture solution (Fugene6 18 μl:hURAT1 DNA 6 μg=3:1, in 600 μl OptiMEM medium/dish) was prepared and kept for 15 minutes at room temperature. To each dish, 600 μl of the mixture solution was injected and then incubated in 37[…] cell incubator for 24 hours. The hURAT1-overexpressed HEK293 cell line was trypsinized and cells were harvested. Cells were resuspended in medium and seeded at 6*10^5 cells/well and incubated for 24 hours in 24-well plate which was surface-coated with Poly-D-Lysine.
[Uric Acid Transport Assay in hURAT1-Overexpressed HEK293 Cell Line]
For each concentration, the stock sample solution was diluted in PBS (1 μl in 800 μl of PBS) as 1.25 fold concentrated working sample solution to obtain final concentrations of 0.01, 0.1, 1 and 10 μM. The hURAT1-overexpressed cell line was washed with 1 ml of PBS. After washing, PBS was discarded and the sample solution was diluted by 1.25 fold with PBS. Preincubation of cells with 200 μl/well of sample solution made above was conducted for 30 minutes in 37[…] cell incubator. After the incubation, each well was treated with 50 μl of PBS containing 500 μM [^14C]-uric acid (final 100 μM of uric acid/well). Cells were incubated for 2 minutes. The cells were washed twice with 1 ml of PBS.
To measure the uric acid uptake, each well was treated with 150 μl of M-per buffer (PIERCE) and kept in 37° C. cell incubator for 30 minutes to make cell lysates. 150 μl of cell lysates was transferred into test tube and 4 ml of scintillation cocktail was added. CPM value of [^14C]-uric acid absorbed into cells was detected using liquid scintillation counter. IC50 for the inhibition of uric acid uptake by each test sample was analyzed by computational numerical processing.

Data set [1] in a line: Test for solubility according to pH. Type of data set: physicochemical. Conditions: 37° C. 2 hours; for solubility at 2 h: thermodynamic from solid.
Experimental: 2.0 g of sodium chloride was dissolved in 7.0 mL of hydrochloric acid and water to make the total volume of 1000 mL. This solution was colorless and clear. Its pH was about 1.2.
To 250 mL of 0.2 mol/L potassium dihydrogen phosphate solution, 118 mL of 0.2 mol/L sodium hydroxide solution and water were added to make the total volume of 1000 mL. This solution was colorless and clear. Its pH was about 6.8.
For the compounds of present invention prepared in the examples, the test samples were prepared in each of the first and second solutions with 2 mg/mL concentration. This test sample solution was agitated for 10 seconds, sonicated for 1 minute and heated at 37° C. for 2 hours. The heated test sample solution was filtered to remove undissolved compounds therein. From filtered solution, 100 μl of the completely dissolved solution was sampled and 100 μl of acetonitrile was added thereto to make test sample solution. For each analysis of test sample solution, the solubility was measured by using liquid chromatography.
The mark [2] stands for this setting: 37 °C, pH 1.2, simulated gastric fluid, first solution pH about 1.2, 2 mg/mL, read-out: Solubility (μg/mL) pH 1.2.
The mark [3] stands for this setting: 37 °C, pH 6.8, aqueous buffer, second solution pH about 6.8, 2 mg/mL, read-out: Solubility (μg/mL) pH 6.8.
The mark [4] stands for this setting: pH 1.2, simulated gastric fluid, first solution pH about 1.2, 2 mg/mL, read-out: Solubility (μg/mL) pH 1.2.
[5] abbreviates: pH 6.8, aqueous buffer, second solution pH about 6.8, 2 mg/mL, read-out: Solubility (μg/mL) pH 6.8.

pIC50: −log10 of the molar value. In brackets after ≈: the same amount, converted by molar mass. Counter-ions that a name gives are not always drawn. Like-named read-outs stand apart in the source and are kept apart here. Some results are limits rather than exact numbers.

CYP2C9, sequence (P11712 whole entry): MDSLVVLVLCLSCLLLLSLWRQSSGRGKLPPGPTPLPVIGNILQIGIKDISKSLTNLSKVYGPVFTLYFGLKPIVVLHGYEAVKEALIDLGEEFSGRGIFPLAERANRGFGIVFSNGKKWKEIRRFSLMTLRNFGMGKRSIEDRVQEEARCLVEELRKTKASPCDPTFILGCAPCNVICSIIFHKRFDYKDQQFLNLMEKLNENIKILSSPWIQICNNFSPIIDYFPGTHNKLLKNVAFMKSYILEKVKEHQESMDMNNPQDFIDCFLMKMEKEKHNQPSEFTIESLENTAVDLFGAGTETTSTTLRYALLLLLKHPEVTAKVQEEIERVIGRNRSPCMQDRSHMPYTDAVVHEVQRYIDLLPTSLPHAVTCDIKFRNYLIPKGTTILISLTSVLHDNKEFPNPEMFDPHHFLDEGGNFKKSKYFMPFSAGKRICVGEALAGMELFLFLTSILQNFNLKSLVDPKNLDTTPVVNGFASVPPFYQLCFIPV

For orientation: pIC50 means −log10 of the IC50, conventionally taken in molar units. High values mean a low IC50, low ones a high IC50. As usually defined, the IC50 is the concentration at which inhibition is half-maximal. Compound `COc1c(Br)cc(C(=O)N2CCOc3ncc(C#N)cc32)cc1Br` [Compound 47-1, 1-(3,5-dibromo-4-methoxy-benzoyl)-2,3-dihydro-1H-pyrido[2,3-b][1,4]oxazin-7-carbonitrile] had a pIC50 against CYP2C9 of less than 4.70. The IC50 at hURAT1 amounted to 0.516 µM.

Take `O=C(c1cc(Br)c(O)c(Br)c1)N1CCOc2ccncc21` [Compound 71, (3,5-dibromo-4-hydroxy-phenyl)-(2,3-dihydro-pyrido[4,3-b][1,4]oxazin-4-yl)-methanone sulfuric acid salt]: the solubility at 2 h in data set [1] (setting [2]) was 2140 µg/mL. In addition, in data set [1] (second solution pH about 6.8, 2 mg/mL), the “Solubility (μg/mL) pH 6.8” value is listed as 344.7 μg/mL. The compound further had a pIC50 on CYP2C9 of less than 4.70.

Regarding `O=C(c1cc(Br)c(O)c(Br)c1)N1CCOc2ncc(-c3ccccc3C(F)(F)F)cc21` [Compound 46, (3,5-dibromo-4-hydroxy-phenyl)-[7-(2-trifluoromethyl-phenyl)-2,3-dihydro-pyrido[2,3-b][1,4]oxazin-1-yl]-methanone], the pIC50 at CYP2C9 is 5.96. Besides, on hURAT1, the IC50 is 0.0047 µM.

On CYP2C9, `O=C(c1cc(Br)c(O)c(Br)c1)N1CCOc2ncc(-c3cncc4ccccc34)cc21` [Compound 61, (3,5-dibromo-4-hydroxy-phenyl)-(7-isoquinolin-4-yl-2,3-dihydro-pyrido[2,3-b][1,4]oxazin-1-yl)-methanone] had a pIC50 of 5.91. Moreover, the IC50 on hURAT1 amounted to 0.002 µM.

In turn, `O=C(c1cc(Br)c(O)c(Br)c1)N1CCOc2cnccc21` [Compound 6, (3,5-dibromo-4-hydroxy-phenyl)-(2,3-dihydro-pyrido[3,4-b][1,4]oxazin-1-yl)-methanone] gave a pIC50 at CYP2C9 of 5.52. The IC50 at hURAT1 is 0.0565 µM.

`O=C(c1cc(Br)c(O)c(Br)c1)N1CCOc2ncc(-c3ccoc3)cc21` [Compound 53, (3,5-dibromo-4-hydroxy-phenyl)-(7-furan-3-yl-2,3-dihydro-pyrido[2,3-b][1,4]oxazin-1-yl]-methanone] gave a pIC50 at CYP2C9 of 4.99. At hURAT1, the IC50 amounted to 0.0562 µM.

With `O=C(c1ccc(O)c(Br)c1)N1CCOc2ccncc21` [Compound 11, (3-bromo-4-hydroxy-phenyl)-(2,3-dihydro-pyrido[4,3-b][1,4]oxazin-4-yl)-methanone bromic acid salt], the pIC50 against CYP2C9 is less than 4.22. On hURAT1, the IC50 was found to be 0.175 µM.

Consider `COc1c(Br)cc(C(=O)N2CCOc3cnccc32)cc1Br` [Compound 5, (3,5-dibromo-4-methoxy-phenyl)-(2,3-dihydro-pyrido[3,4-b][1,4]oxazin-1-yl)-methanone], for which the IC50 at hURAT1 amounted to 0.175 µM.

In the case of `O=C1CCCN1c1cnc2c(c1)N(C(=O)c1cc(Br)c(O)c(Br)c1)CCO2` [Compound 75, 1-[1-(3,5-dibromo-4-hydroxy-benzoyl)-2,3-dihydro-1H-pyrido[2,3-b][1,4]oxazin-7-yl]-pyrrolidin-2-one], at CYP2C9, the pIC50 was 4.94.

With `O=C(c1cc(O)no1)N1CCOc2ccncc21` [Compound 44, (2,3-dihydro-pyrido[4,3-b][1,4]oxazin-4-yl)-(3-hydroxy-isoxazol-5-yl)-methanone], the solubility at 2 h in data set [1] (setting [2]) was 1960 µg/mL (≈ 7.93 mM); in data set [1] (setting [3]), 2100 µg/mL (≈ 8.48 mM). At CYP2C9, this compound had a pIC50 of less than 4.70.

`CC(=O)c1ccc(-c2cnc3c(c2)N(C(=O)c2cc(Br)c(O)c(Br)c2)CCO3)cc1` [Compound 67, 1-{4-[1-(3,5-dibromo-4-hydroxy-benzoyl)-2,3-dihydro-1H-pyrido[2,3-b][1,4]oxazin-7-yl]-phenyl}-ethanone]: the IC50 at hURAT1 was 0.0078 µM.

In turn, `O=C(c1ccc(O)c(Cl)c1)N1CCOc2cnccc21` [Compound 18, (3-chloro-4-hydroxy-phenyl)-(2,3-dihydro-pyrido[3,4-b][1,4]oxazin-1-yl)-methanone bromic acid salt] had a pIC50 against CYP2C9 of 5.01.

For `O=C(c1cc(Br)c([O-])c(Br)c1)N1CCOc2ccncc21.[K+]` [Compound 73], the solubility at 2 h in data set [1] (setting [4]) is 1150 µg/mL; in data set [1] (setting [5]), 565 µg/mL.

In turn, `O=C(c1ccc(O)c(Cl)c1)N1CCOc2cnccc21` [Compound 34, (3-chloro-4-hydroxy-phenyl)-(2,3-dihydro-pyrido[3,4-b][1,4]oxazin-1-yl)-methanone] gave a pIC50 against CYP2C9 of 4.71.

For the compound `O=C(c1ccc(O)c(Br)c1)N1CCOc2cnccc21` [Compound 40, (3-bromo-4-hydroxy-phenyl)-(2,3-dihydro-pyrido[3,4-b][1,4]oxazin-1-yl)-methanone], the figures for the solubility at 2 h in data set [1] (setting [2]) and in data set [1] (setting [3]) were 1320 µg/mL (≈ 3.93 mM) and 473 µg/mL (≈ 1.41 mM), respectively. The pIC50 against CYP2C9 is 4.82.

Consider `COc1cc(C(=O)N2CCOc3ccncc32)on1` [Compound 43, (2,3-dihydro-pyrido[4,3-b][1,4]oxazin-4-yl)-(3-methoxy-isoxazol-5-yl)-methanone], for which the solubility at 2 h in data set [1] (setting [2]) is 1260 µg/mL (≈ 4.82 mM); in data set [1] (setting [3]), 1010 µg/mL (≈ 3.86 mM). In addition, on CYP2C9, the negative logarithm of the IC50 (pIC50) is less than 4.70.

On to `COc1c(Br)cc(C(=O)N2C(=O)COc3ccncc32)cc1Br` [Compound 57, 4-(3,5-dibromo-4-methoxy-benzoyl)-4H-pyrido[4,3-b][1,4]oxazin-3-one], for which the pIC50 against CYP2C9 is less than 4.70.

In turn, `O=C(CN1CCOc2ccncc21)c1cc(Br)c(O)c(Br)c1` [Compound 54, 1-(3,5-dibromo-4-hydroxy-phenyl)-2-(2,3-dihydro-pyrido[4,3-b][1,4]oxazin-4-yl)-ethanone] gave a pIC50 against CYP2C9 of less than 5.22.

As to `O=C(c1cnc(O)nc1O)N1CCOc2ccncc21` [Compound 59, (2,3-dihydro-pyrido[4,3-b][1,4]oxazin-4-yl)-(2,4-dihydroxy-pyrimidin-5-yl)-methanone], the solubility at 2 h in data set [1] (setting [2]) is 2240 µg/mL (≈ 8.18 mM); in data set [1] (setting [3]), 676 µg/mL (≈ 2.47 mM). The same compound gave a negative-log IC50 (pIC50) on CYP2C9 of less than 4.70.

As to `Cl.O=C(c1cc(Br)c(O)c(Br)c1)N1CCOc2ccncc21` [Compound 33, (3,5-dibromo-4-hydroxy-phenyl)-(2,3-dihydro-pyrido[4,3-b][1,4]oxazin-4-yl)-methanone hydrochloric acid salt], the figures for the solubility at 2 h in data set [1] (setting [4]) and in data set [1] (setting [5]) were 1580 µg/mL and 810 µg/mL, respectively.

For `O=C(c1cc(Cl)nc(Cl)c1)N1CCOc2ccncc21` [Compound 31, (2,6-dichloro-pyridin-4-yl)-(2,3-dihydro-pyrido[4,3-b][1,4]oxazin-4-yl)-methanone], the solubility at 2 h was 1850 µg/mL (≈ 5.95 mM) in data set [1] (setting [2]) and 199 µg/mL (≈ 0.641 mM) in data set [1] (setting [3]). In addition, the pIC50 on CYP2C9 was less than 4.70.

For `O=C(c1cc(O)nc(O)n1)N1CCOc2ccncc21` [Compound 60, (2,3-dihydro-pyrido[4,3-b][1,4]oxazin-4-yl)-(2,6-dihydroxy-pyrimidin-4-yl)-methanone], the solubility at 2 h was 2130 µg/mL (≈ 7.75 mM) in data set [1] (setting [2]) and 600 µg/mL (≈ 2.19 mM) in data set [1] (setting [3]). At CYP2C9, this compound showed a pIC50 of less than 4.70.

The compound `O=S(=O)(c1ccc(O)cc1)N1CCOc2ccncc21` [Compound 35-1, 4-(2,3-dihydro-pyrido[4,3-b][1,4]oxazin-4-sulfonyl)-phenol] showed a pIC50 at CYP2C9 of less than 4.70.

As to `O=C(c1ccc(O)nc1)N1CCOc2ccncc21` [Compound 32, (2,3-dihydro-pyrido[4,3-b][1,4]oxazin-4-yl)-(6-hydroxy-pyridin-3-yl)-methanone], the results for the solubility at 2 h in data set [1] (setting [2]) and in data set [1] (setting [3]) were 1960 µg/mL (≈ 7.62 mM) and 1470 µg/mL (≈ 5.73 mM), respectively. On CYP2C9, the pIC50 was less than 4.70.
